# Test results published in patent US20050261292A1, “Pharmaceutical composition containing N-sulfamoyl-N'-arylpiperazines for the treatment or inhibition of obesity and related conditions” (Solvay Pharmaceuticals GmbH, priority 2004, published 2005).
# Where a name gives a salt, the structure may show the parent alone.
# Key:
# [1] = test system: male C57Bl/6 mice; assay: Acute in vivo food intake test in mice; details: high caloric diet, 100 mg/kg/day oral gavage in two halves
# Procedure: 3. Acute in vivo Food Intake Test in Mice
# The studies were carried out in individually housed male C57Bl/6 mice (n=8 per group). The mice were kept on an inverted 12/12 h light/dark cycle (lights on 22:00). They were allowed food (high caloric diet) and water ad libitum. Food intake and water consumption was measured daily. The test compound of Formula I was suspended in 1% methylcellulose in water and 2% (v/v) of Poloxamer 188 (Lutrol F68®) and administered by oral gavage at a dose of 100 mg/kg/day.
# In the test model described above, the test substances caused a decrease of the animals' 24 h food intake to the percentages of food intake when compared to control as given in table 3 below.
# [2] = test system: dietary obese female Wistar rats; assay: Chronic influence on food and water intake and body weight gain in vivo (carcass composition, plasma parameters); parameters: species or system rat; details: 28 days, mean ± SEM; for Plasma glucose / Plasma insulin / Plasma leptin: plasma day 29
# Procedure: 4. Chronic Influence on Food and Water Intake and Body Weight Gain in vivo
# Female Wistar rats (weight range 250-300 g; Charles River, Margate, Kent) were housed in pairs in polypropylene cages with solid floors and sawdust bedding at a temperature of 21±4° C. and 55±20% humidity. Animals were maintained on a reverse phase light-dark cycle (lights off for 8 hours from 10.00-18.00 h) during which time the room was illuminated by red light. Animals had free access to powdered high fat diet (VRF1 plus 20% lard), ground chocolate, ground peanuts and tap water at all times. The three different diets were contained in separate glass feeding jars with aluminium lids (Solmedia Laboratory Suppliers, Romford, Essex). […] Animals were housed in pairs for twelve weeks. At least two weeks before the start of the baseline readings, animals were housed individually in polypropylene cages with wire grid floors to enable the food intake of each rat to be recorded. Polypropylene trays with cage pads were placed beneath each cage to detect any food spillage.
# At the start of the study, animals were weighed (to the nearest 0.1 g using an electronic top-pan balance) and allocated into 6 weight-matched treatment groups, each containing 10 animals. Following a 7 day baseline run-in period, during which time all animals were dosed orally once a day with vehicle (1% Tylose MH50, 0.1% poloxamer 188), rats were given vehicle or test compound of Formula I for 28 days as described in Table 4 below: […]
# The test substance of example 2 was suspended in 1% Tylose MH50, 0.1% poloxamer 188 and administered by oral gavage (2 ml/kg). All dosing occurred at the onset of the 8 hours dark period (spanning the period immediately before and after lights out). The second treatments were given 4 hours after the first. Rats, feeding jars and water bottles were weighed (to the nearest 0.1 g) every day at the time of administration of vehicle or test substance. At each reading, the tray below each cage was examined for spilt food, which was returned to the appropriate jar before weighing. However, spillage of food from the feeding jars was negligible. Variations in body weight and energy levels of the different types of food were accounted for by expressing the food intake results in terms of kJ/kg rat weight. Water intake results were expressed in g/kg.
# Animals were killed at the end of the study (by CO2 to minimize any fluid loss) on day 29 and blood samples (5 ml whole blood/animal) were collected by cardiac puncture. Plasma was separated by centrifugation and stored at −75° C. until analysis. Following blood collection carcasses were weighed, frozen and stored at −75° C. for body composition analysis. Body fat, protein, water and ash levels of the carcasses were determined using standard chemical analysis techniques. Only fat, protein, water and ash content were measured as other components (mainly carbohydrate) form less than 2% of total body composition.
# Carcasses were individually milled at the temperature of liquid nitrogen, mixed and two representative samples taken. Carcass water was determined by freeze-drying the samples to constant weight. Carcass fat was determined on the freeze-dried samples using a modified Soxhlet extraction protocol (petroleum ether at 40-60° C.) with a Foss Soxtec® HT2 system (Foss UK Ltd, Wheldrake, UK) according to the manufacturers recommended protocol. Carcass protein was determined using a micro-Kjeldahl procedure on the freeze-dried samples using a Foss 2012® digestion block and Foss 2200® distilling unit (Foss UK Ltd). Residual carcass ash was determined by firing the freeze-dried samples at high temperatures using a muffle ashing furnace. Repeat determinations of the chemical analysis parameters were performed as necessary (e.g. if the duplicate samples differed by more than 1%).
# [3] = 30 mg/kg po twice daily (0 h, 4 h)
# [4] = 50 mg/kg po twice daily (0 h, 4 h)
structure (smiles),measurement,setting,value
"NS(=O)(=O)N1CCN(c2ccccc2)CC1 [Example 2, N-Sulfamoyl-N′-phenylpiperazine hydrochloride]",24 h food intake,[1],68 % of control
same,"Carcass ash, mean percent final body weight",[2]; [3],3.24 ± 0.12%
same,"Carcass ash, mean weight per rat",[2]; [3],12.13 ± 0.48 g
same,"Carcass fat, mean percent final body weight",[2]; [3],22.8 ± 1.0 %
same,"Carcass fat, mean weight per rat",[2]; [3],87.9 ± 3.8 g
same,"Carcass protein, mean percent final body weight",[2]; [3],17.4 ± 0.3*° %
same,"Carcass protein, mean weight per rat",[2]; [3],64.8 ± 1.2 g
same,"Carcass water, mean percent final body weight",[2]; [3],55.2 ± 0.8 %
same,"Carcass water, mean weight per rat",[2]; [3],205.8 ± 3.1 g
same,"Carcass weight, mean per rat",[2]; [3],375.4 ± 4.8 g
same,Plasma glucose,[2]; 30 mg/kg po twice daily,8.6 ± 0.5 mM
same,Plasma insulin,[2]; 30 mg/kg po twice daily,1.53 ± 0.33 ng/mL
same,Plasma leptin,[2]; 30 mg/kg po twice daily,68.8 ± 9.4 ng/mL
same,"Carcass ash, mean percent final body weight",[2]; [4],3.14 ± 0.1%
same,"Carcass ash, mean weight per rat",[2]; [4],11.38 ± 0.29 g
same,"Carcass fat, mean percent final body weight",[2]; [4],22.3 ± 1.8 %
same,"Carcass fat, mean weight per rat",[2]; [4],83.6 ± 6.9 g
same,"Carcass protein, mean percent final body weight",[2]; [4],17.3 ± 0.4*° %
same,"Carcass protein, mean weight per rat",[2]; [4],62.8 ± 1.3 g
same,"Carcass water, mean percent final body weight",[2]; [4],55.7 ± 1.2 %
same,"Carcass water, mean weight per rat",[2]; [4],202.2 ± 3.6 g
same,"Carcass weight, mean per rat",[2]; [4],365.6 ± 3.8 g
same,Plasma glucose,[2]; 50 mg/kg po twice daily,7.9 ± 0.5 mM
same,Plasma insulin,[2]; 50 mg/kg po twice daily,1.40 ± 0.41 ng/mL
same,Plasma leptin,[2]; 50 mg/kg po twice daily,58.8 ± 11.6 ng/mL
